Literature values in article PMC10855781 (International Journal of Molecular Sciences, 2024).
“Also recorded” adds a separate entry of the source. Like-named read-outs stand apart in the source and are kept apart here.

Assays:
[1] = rat liver lysosomal homogenate; conditions: up to 6 h
[2] = lysosomal homogenate; Dau=Aoa-Gly-OH, Dau=Aoa-Gly-Phe-OH, H-Lys(Dau=Aoa)-OH; ref [110]
[3] = system: normal human dermal fibroblast (NHDF); conditions: 10 μM, 72 h treatment, ref [110]
Procedure: (§1) We assessed a modified version of this peptide as a homing device, where Cys was replaced by Ser because the thiol group is not necessary to introduce an oxime linkage. […] Using this conjugate at 10 μM concentration, the cell viability of the PANC-1 cells was 0.1% after a 72 h treatment. In contrast, the cell viability of normal human dermal fibroblast (NHDF), a model of healthy cells, was roughly 75%, showing a significa ...

[4] = system: PANC-1 (human pancreas adenocarcinoma); conditions: 10 μM, 72 h treatment, ref [110]
Procedure: as §1

PANC-1 tumor = conditions: ref [110]; for tumor growth inhibition by tumor volume: eighteen treatments, day 74
Procedure: The in vivo tumor growth inhibitory effect of the conjugate and free Dau was investigated on s.c.-developed PANC-1 tumor-bearing SCID female mice. The free drug was applied once a week at a maximum tolerated dose of 1 mg/kg body weight (three treatments), while the conjugate was administered, on average, three times per a week either at a 2 mg/kg or 10 mg/kg dose, calculated as per the Dau content (eighteen treatments altogether). The first treatment was given on day 10 after tumor inoculation. After the third treatment with free Dau, the animals lost 20% of their weight; therefore, the mice i ...

[5] = system: different cancer cell lines, e.g. HT-29; conditions: ref [18]
Text: In our group, we synthesized conjugates based on a heptapeptide (VHLGYAT) selected by Zhang et al. and tested them on HT-29 human colon adenocarcinoma. Since sequence modification may result in different oxime-linked Dau-amino acid fragments, a cathepsin B- labile spacer was incorporated to the N-terminal of the homing peptide. From the parent compound (Dau=Aoa-LRRY-VHLGYAT-NH2), the potential positions that can be substituted were selected using Ala-scan.

HT-29 tumor = conditions: mouse, in vivo
Procedure: In our group, we synthesized conjugates based on a heptapeptide (VHLGYAT) selected by Zhang et al. and tested them on HT-29 human colon adenocarcinoma. Since sequence modification may result in different oxime-linked Dau-amino acid fragments, a cathepsin B- labile spacer was incorporated to the N-terminal of the homing peptide. From the parent compound (Dau=Aoa-LRRY-VHLGYAT-NH2), the potential positions that can be substituted were selected using Ala-scan. […] Statistical analysis was performed by Mann-Whitney test. *, ** and *** mean significant at p < 0.05, p < 0.01 and p < 0.001, respectively. Adapted with permission from ref. [18]. 2019, Elsevier. TEXT PRINTED IN THE PICTURE: (a) Dau: Tumour weight (g): 16% | (a) Parent: Tumour weight (g): 35% | (a) G/F exchange: Tumour weight (g): 11% | (b) Dau: Liver weight (g): 72% | (b) Parent: Liver weight (g): 101% | (b) G/F exchange: Liver weight (g): 90% | (c) Dau: Prol ...

PC3 cancer cell lines = conditions: PC3, 1.5 h incubation; concentration for internalization of 50% of the conjugate in living cells; ref [84]; read-out: cellular uptake (UC50)
Text: (§2) Table 4 In vitro and in vivo activity of bombesin analog–daunomycin conjugates on PC3 cells. | column: L1: Dau=Aoa-LRRY- […]le-NH2; L5: Dau=Aoa-LRRY- fQWAVGHStaL-NH2; L6: Dau=Aoa-LRRY- fQWAVβAlaHStaNle-NH2

PC3 cells = conditions: ref [84], read-out: cytostatic effect (IC50)
Text: as §2

[6] = system: PC-3 human prostatic adenocarcinoma; design: method as in PMID 36834815; conditions: s.c. PC-3, ref [84]
Text: This 14-mer peptide (Glp-[…]NH2), first discovered in the skin of the frog Bombina bombina, is associated with the gastrin-releasing peptide (GRP) as a mammalian counterpart. The bombesin receptor family comprises neuromedin receptor B (NMB-R, or BB1), gastrin-releasing peptide receptor (GRP-R, or BB2) and bombesin receptor subtype 3 (BRS-3, or BB3). Among them, GRP-R has been the most investig ...

[7] = system: human breast adenocarcinoma (MCF-7); conditions: ref [75]
Text: Table 2 Comparative study of cytotoxic effects and cardiotoxicity elicited by selected GnRH-based anthracycline conjugates. | column: IC50 Values (μM)

[8] = system: human colorectal adenocarcinoma (HT-29); conditions: Table 2; ref [75]
Text: Table 2 Comparative study of cytotoxic effects and cardiotoxicity elicited by selected GnRH-based anthracycline conjugates. || Table 3 In vivo tumor growth inhibition of a few relevant Dau-GnRH-III conjugates. | column: Cytostatic Effect (IC50: μM) on HT-29 cells

[9] = system: Human cardiac myocytes (HCM); design: key: 0: no cardiotoxicity; +: weak; ++: moderate; +++: strong cardiotoxicity; conditions: long-term (0–72 h) cytotoxic effect, impedimetric; ref [75]
Text: Table 2 Comparative study of cytotoxic effects and cardiotoxicity elicited by selected GnRH-based anthracycline conjugates. | column: Cardiotoxicity || The main drug-related toxic side effect of anthracyclines is cardiotoxicity, leading to cardiomyopathy and heart failure. Comparative experiments to determine the cardiotoxicity of peptide–anthracycline conjugates with different linkages might be informative for the other conjugates with different types of drugs as well. For this purpose, human cardiomyocytes (HCM) and human umbilical vein endothelial cells (HUVEC) were used as models. The long-term (0–72 h) cytotoxic effect of sixteen GnRH-based conjugates containing Dox and Dau was determined by real-time impedimetric sensing using th ...

[10] = system: human umbilical vein endothelial cells (HUVEC); design: key: 0: no cardiotoxicity; +: weak; ++: moderate; +++: strong cardiotoxicity; conditions: long-term (0–72 h) cytotoxic effect, impedimetric; ref [75]
Text: Table 2 Comparative study of cytotoxic effects and cardiotoxicity elicited by selected GnRH-based anthracycline conjugates. | column: Cardiotoxicity

lysosomal homogenate = conditions: up to 72 h

Molecule: Dau=Aoa-LRRY- fQWAVGHStaL-NH2
- fragment found [1]: Dau=Aoa-Leu-OH, less than 30 min

Molecule: Dau=Aoa-GFLG-K(Dau=Aoa)SKAAKN-OH [listing 1 of 2 here]
- time of release of three drug-containing metabolites [2]: ≤ 72 h
- cell viability [3]: roughly 75%
- cell viability [4]: 0.1%
- tumor growth inhibition by tumor volume (PANC-1 tumor; 2 mg/kg (Dau content)): 14%
- tumor weight reduction (PANC-1 tumor; 2 mg/kg (Dau content)): 27.3%
- tumor growth inhibition by tumor volume (PANC-1 tumor; 10 mg/kg (Dau content)): 32.2%
- tumor weight reduction (PANC-1 tumor; 10 mg/kg (Dau content)): 30.4%
- toxic side effects (PANC-1 tumor; 2 or 10 mg/kg Dau content): No toxic side effects
- highest tumor inhibition rate (PANC-1 tumor; day 67, after 16 treatments, dose not stated): 43%

Molecule: Dau=Aoa-LRRY-VHLFYAT-NH2
- in vitro cytostasis, times higher activity than the parent conjugate ([5]; different cancer cell lines): 2–5 times
- in vitro cytostasis, times higher activity than the parent conjugate ([5]; on HT-29): up to 2.6 times
- Liver weight, percent label in Figure 5b (HT-29 tumor): 90%

Molecule: Dau=Aoa-LRRY- QWAVGHLNle-NH2 [L1]
- EC50 (PC3 cancer cell lines): 22.9 µM
- IC50 (PC3 cells): 4.38 ± 0.33 µM

Molecule: Dau=Aoa-LRRY- fQWAVβAlaHStaNle-NH2 [L6]
- tumor volume inhibition ([6]; i.p. 10 mg Dau-content/kg every fifth day from day 9, five treatments, day 33, Dau 1 mg/kg, terminated day 26): 31.4%
- tumor weight inhibition ([6]; i.p. 10 mg Dau-content/kg, five treatments, day 33): 33.1%
- tumor DT enhancement ([6]; tumor doubling time, 10 mg Dau-content/kg): 11.5%
- EC50 (PC3 cancer cell lines): 16.1 µM
- IC50 (PC3 cells): 18 ± 3.01 µM

Molecule: COc1cccc2c1C(=O)c1c(O)c3c(c(O)c1C2=O)C[C@@](O)(C(=O)CO)C[C@@H]3O[C@H]1C[C@H](N)[C@H](O)[C@H](C)O1 [doxorubicin (Dox), doxorubicin]
- IC50 [7]: 0.1 µM
- IC50 [8]: 0.1 µM
- Cardiotoxicity, HCM [9]: +++
- Cardiotoxicity, HUVEC [10]: +++

Molecule: Dau=Aoa-GFLG-K(Dau=Aoa)SKAAKN-OH [listing 2 of 2 here]
- fragment found (lysosomal homogenate): Dau=Aoa-Gly-Phe-OH, within 72 h; also recorded: H-Lys(Dau=Aoa)-OH, within 72 h

Molecule: Dau=Aoa-LRRY- QWAVGHLNle-NH2
- fragment found [1]: Dau=Aoa-Leu-OH, less than 30 min

Molecule: N-O-CH2-CO-TFFYGGSRGKRNNFKTEEY-CONH2
- fragment found (lysosomal homogenate): Dau=Aoa-Thr-OH, major, within 1 h

Molecule: Dau=Aoa-LRRY- fQWAVβAlaHStaNle-NH2
- fragment found [1]: Dau=Aoa-Leu-OH, less than 30 min

Molecule: NH2-TFFYGGSRGKRNNFKTEEY-CONH2
- fragment found (lysosomal homogenate): H-Lys(Dau=Aoa)-OH, major, within 1 h
